Data as given in patent publication US10065990B2, “Cyclic peptide compound, and preparation method, pharmaceutical composition and use thereof” (HANGZHOU GUANYU BIO-MEDICAL CO., LTD, priority 2013, dated 2018).
Read-outs that look alike come from different tables or passages of the source.

Columns and labels:
[1] = molecular target: HDAC2 (Homo sapiens, UniProt Q92769); test: HDAC biochemical activity measurement (fluorescent substrate deacetylation);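 further: HDAC2 enzyme with an acetyl-lysine fluorescent substrate, then developer added, fluorescence read at excitation 360 nm and emission 460 nm, inhibition measured across several compound concentrations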; conditions: 37° C. 30 minutes
[2] = test system: Bel-7402 (human hepatoma cells); test: MTT cancer cell growth inhibition; format: cell-based; conditions: MTT, 72 hours incubation, Bel-7402 cells, read-out: GI50 Bel-7402
Summary of the method: (§1)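 Cells seeded at 1500/well in DMEM or RPMI 1640 with 10% FBS, incubated overnight, then exposed to compound at 10^−5 to 10^−10 M final in triplicate for 72 h at 37° C, 5% CO2. MTT added for 4 h, formazan dissolved in DMSO, absorbance read at 570 nm; GI50 derived from viability.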

[3] = test system: Hela (human cervical cancer cells); test: MTT cancer cell growth inhibition; format: cell-based; conditions: Homo sapiens, HeLa, 72 h, MTT
Summary of the method: as §1

[4] = test system: H1975 (non-small cell lung adenocarcinoma); test: MTT cancer cell growth inhibition; format: cell-based; conditions: MTT, 72 hours incubation, H1975 cells, read-out: GI50 H1975
Summary of the method: as §1

[5] = test system: HT1080 (human fibrosarcoma cells); test: MTT cancer cell growth inhibition; format: cell-based; conditions: Homo sapiens, HT-1080, 72 h, MTT
Summary of the method: as §1

[6] = test system: lncap (prostate cancer cells); test: MTT cancer cell growth inhibition; format: cell-based; conditions: Homo sapiens, LNCaP, 72 h, MTT
Summary of the method: as §1

[7] = test system: KBM-5 (human chronic myelogenous leukemia); test: MTT cancer cell growth inhibition; format: cell-based; conditions: MTT, 72 hours incubation, KBM-5 cells, read-out: GI50 KBM-5
Summary of the method: as §1

[8] = test system: SGC-7901 (human gastric cancer cells); test: MTT cancer cell growth inhibition; format: cell-based; conditions: MTT, 72 hours incubation, SGC-7901 cells, read-out: GI50 SGC-7901
Summary of the method: as §1

[9] = test system: A549 (human lung cancer cells); test: MTT cancer cell growth inhibition; format: cell-based; conditions: Homo sapiens, A549, 72 h, MTT
Summary of the method: as §1

[10] = test system: PANC-1 (Pac-1, human pancreatic cancer cells); test: MTT cancer cell growth inhibition; format: cell-based; conditions: Homo sapiens, PANC-1, 72 h, MTT
Summary of the method: as §1

[11] = test system: MDA-MB-231 (breast cancer cells); test: MTT cancer cell growth inhibition; format: cell-based
Summary of the method: as §1

[12] = test system: MOLT-4 (human acute lymphoblastic leukemia cells); test: MTT cancer cell growth inhibition; format: cell-based; conditions: Homo sapiens, MOLT-4, 72 h, MTT
Summary of the method: as §1

[13] = test system: N-87 (human gastric cancer cells); test: MTT cancer cell growth inhibition; format: cell-based; conditions: MTT, 72 hours incubation, N-87 cells, read-out: GI50 N-87
Summary of the method: as §1

[14] = test system: Huh-7 (human hepatoma cells); test: MTT cancer cell growth inhibition; format: cell-based; conditions: MTT, 72 hours incubation, Huh-7 cells, read-out: GI50 Huh-7
Summary of the method: as §1

[15] = test system: MCF-7 (human breast cancer cells); test: MTT cancer cell growth inhibition; format: cell-based; conditions: Homo sapiens, MCF7, 72 h
Summary of the method: as §1

[16] = test system: HCC827 (human non-small cell lung cancer cells); test: MTT cancer cell growth inhibition; format: cell-based; conditions: MTT, 72 hours incubation, HCC827 cells, read-out: GI50 HCC827
Summary of the method: as §1

[17] = test system: K562 (human leukemia cells); test: MTT cancer cell growth inhibition; format: cell-based; conditions: MTT, 72 hours incubation, K562 cells, read-out: GI50 K562
Summary of the method: as §1

[18] = test system: U937 (human leukemia cells); test: MTT cancer cell growth inhibition; format: cell-based; conditions: Homo sapiens, U-937, 72 h, MTT
Summary of the method: as §1

[19] = test system: BGC-823 (human gastric cancer cells); test: MTT cancer cell growth inhibition; format: cell-based; conditions: MTT
Summary of the method: as §1

[20] = test system: KBM5-T315I (human chronic myelogenous leukemia); test: MTT cancer cell growth inhibition; format: cell-based; conditions: MTT, 72 hours incubation, KBM5-T315I cells, read-out: GI50 KBM5-T315I
Summary of the method: as §1

[21] = test system: DU145 (human prostate cancer cells); test: MTT cancer cell growth inhibition; format: cell-based; conditions: Homo sapiens, DU-145, 72 h, MTT
Summary of the method: as §1

[22] = Hela cells, 72 hours incubation, read-out: GI50 Hela
[23] = 72 hours, present invention, read-out: GI50 Hela, a
[24] = HT1080 cells, 72 hours incubation, read-out: GI50 HT1
[25] = 72 hours, present invention, read-out: GI50 HT1080, a
[26] = 72 hours, present invention, read-out: GI50 lncap, a
[27] = lncap cells, 72 hours incubation, read-out: GI50 lnca
[28] = A549 cells, 72 hours incubation, read-out: GI50 A54
[29] = 72 hours, present invention, read-out: GI50 A549, a
[30] = 72 hours, present invention, read-out: GI50 PANC-1, a
[31] = PANC-1 cells, 72 hours incubation, read-out: GI50 PAN
[32] = Homo sapiens, MDA-MB-231, 72 h, read-out: GI50 MDA-MB-231, MTT, 72 hours incubation, MDA-MB-231 cells
[33] = 72 hours, present invention, read-out: GI50 Molt-4, a
[34] = 72 hours, present invention, read-out: GI50 MCF7, a
[35] = 72 hours, present invention, read-out: GI50 U937, a
[36] = U937 cells, 72 hours incubation, read-out: GI50 U93
[37] = Homo sapiens, BGC-823, 72 h, BGC-823 cells, 72 hours incubation, read-out: GI50 BG
[38] = Homo sapiens, BGC-823, 72 h, 72 hours, present invention, read-out: GI50 BGC823, a
[39] = 72 hours, present invention, read-out: GI50 Du145, a
[40] = 72 hours incubation, read-out: GI50 Hela
[41] = 72 hours incubation, read-out: GI50 HT1
[42] = 72 hours incubation, read-out: GI50 lnca
[43] = 72 hours incubation, read-out: GI50 A54
[44] = 72 hours incubation, read-out: GI50 PAN
[45] = 72 hours incubation, read-out: GI50 Mol
[46] = 72 hours incubation, read-out: GI50 MCF
[47] = 72 hours incubation, read-out: GI50 U93
[48] = 72 hours incubation, read-out: GI50 Du1

Sequence of HDAC2 (Q92769 whole entry, species assumed): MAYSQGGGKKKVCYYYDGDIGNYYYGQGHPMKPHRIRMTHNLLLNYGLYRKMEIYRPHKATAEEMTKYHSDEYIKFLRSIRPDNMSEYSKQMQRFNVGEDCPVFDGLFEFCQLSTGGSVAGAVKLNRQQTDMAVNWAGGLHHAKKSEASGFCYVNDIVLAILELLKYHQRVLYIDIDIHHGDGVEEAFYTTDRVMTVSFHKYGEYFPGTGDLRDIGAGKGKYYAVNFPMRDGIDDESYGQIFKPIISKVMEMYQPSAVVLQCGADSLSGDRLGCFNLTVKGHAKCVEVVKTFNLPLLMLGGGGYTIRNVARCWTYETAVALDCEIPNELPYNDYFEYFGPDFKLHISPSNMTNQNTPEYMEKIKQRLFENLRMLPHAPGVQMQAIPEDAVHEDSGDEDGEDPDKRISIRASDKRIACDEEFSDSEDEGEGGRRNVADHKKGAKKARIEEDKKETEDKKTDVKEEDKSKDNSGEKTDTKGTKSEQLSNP

Row | SMILES | IC50 [1] | GI50 ([2]; Homo sapiens, Bel-7402, 72 h) | GI50 [3, 22] | GI50 [3, 23] | GI50 ([4]; Homo sapiens, NCI-H1975, 72 h) | GI50 [5, 24] | GI50 [5, 25] | GI50 [6, 26] | GI50 [6, 27] | GI50 ([7]; Homo sapiens, KBM5, 72 h) | GI50 ([8]; Homo sapiens, SGC-7901, 72 h) | GI50 [9, 28] | GI50 [9, 29] | GI50 [10, 30] | GI50 [11, 32] | GI50 ([13]; Homo sapiens, 72 h) | GI50 ([14]; Homo sapiens, Huh-7, 72 h) | GI50 ([16]; Homo sapiens, HCC827, 72 h) | GI50 ([17]; Homo sapiens, K562, 72 h) | GI50 ([20]; Homo sapiens, 72 h) | further results
1 | C/C=C1\NC(=O)c2cccc(n2)CNC(=O)C[C@@H](/C=C/CCSC(=O)CCCCCCC)OC(=O)[C@H](CCSC)NC1=O [Compound 240] | 21 nM | 79 nM | 70 nM | 18 nM | 56 nM | 10 nM | 33 nM | 70 nM | 10 nM | 71 nM | 24 nM | 10 nM | 36 nM | 190 nM | 37 nM | 96 nM | 61 nM | 66 nM | 47 nM | 83 nM | GI50 [10, 31]: 110 nM; GI50 ([12]; MOLT-4 cells, 72 hours incubation, read-out: GI50 Mol): 30 nM; GI50 [12, 33]: 18 nM; GI50 [15, 34]: 1 nM; GI50 [18, 35]: 12 nM; GI50 [18, 36]: 30 nM; GI50 [19, 37]: 190 nM; GI50 [19, 38]: 110 nM; GI50 [21, 39]: 4 nM
2 | C/C=C1\NC(=O)c2cccc(n2)CNC(=O)C[C@@H](/C=C/CCSC(C)=O)OC(=O)[C@H](Cc2ccc(O)cc2)NC1=O [Compound 18] | 55 nM | 95 nM | – | – | 53 nM | – | – | – | – | 54 nM | 42 nM | – | – | – | 78 nM | 44 nM | 65 nM | 59 nM | 35 nM | 37 nM | GI50 [3, 40]: 370 nM; GI50 [5, 41]: 10800 nM; GI50 [6, 42]: 10300 nM; GI50 [9, 43]: 3800 nM; GI50 [10, 44]: 42100 nM; GI50 [12, 45]: 59700 nM; GI50 [15, 46]: 490 nM; GI50 [18, 47]: 11300 nM; GI50 ([19]; Homo sapiens, BGC-823, 72 h, 72 hours incubation, read-out: GI50 BG): 53100 nM; GI50 [21, 48]: 420 nM
3 | C/C=C1\NC(=O)c2cccc(n2)CNC(=O)C[C@@H](/C=C/CCSC(=O)CCCCCCC)OC(=O)[C@H](c2ccc(O)cc2)NC1=O [Compound 238] | 83 nM | 31 nM | 50 nM | 55 nM | 82 nM | 20 nM | 26 nM | 110 nM | 110 nM | 52 nM | 56 nM | 10 nM | 16 nM | 77 nM | 46 nM | 26 nM | 55 nM | 29 nM | 65 nM | 66 nM | GI50 [10, 31]: 70 nM; GI50 [12, 33]: 8 nM; GI50 [15, 34]: 23 nM; GI50 ([15]; MCF-7 cells, 72 hours incubation, read-out: GI50 MCF): 20 nM; GI50 [18, 35]: 15 nM; GI50 [18, 36]: 10 nM; GI50 [19, 37]: 140 nM; GI50 [19, 38]: 140 nM; GI50 ([21]; DU145 cells, 72 hours incubation, read-out: GI50 Du1): 10 nM; GI50 [21, 39]: 12 nM
4 | C/C=C1\NC(=O)c2nc(ccc2F)CNC(=O)C[C@@H](/C=C/CCSC(C)=O)OC(=O)[C@H](C(C)C)NC1=O [Example 48] | 15 nM | – | – | – | – | – | – | – | – | – | – | – | – | – | – | – | – | – | – | – | GI50 [2]: 42 nM; GI50 [3, 40]: 70 nM; GI50 [4]: 28 nM; GI50 [5, 41]: 40 nM; GI50 [6, 42]: 30 nM; GI50 [7]: 76 nM; GI50 [8]: 69 nM; GI50 [9, 43]: 60 nM; GI50 [10, 44]: 40 nM; GI50 ([11]; read-out: GI50 MDA-MB-231, MTT, 72 hours incubation, MDA-MB-231 cells): 35 nM; GI50 [12, 45]: 30 nM; GI50 [13]: 81 nM; GI50 [14]: 35 nM; GI50 [15, 46]: 60 nM; GI50 [16]: 42 nM; GI50 [17]: 28 nM; GI50 [18, 47]: 20 nM; GI50 ([19]; 72 hours incubation, read-out: GI50 BG): 80 nM; GI50 [20]: 61 nM; GI50 [21, 48]: 20 nM
